Where two headings read alike, the source gives them in different places.
Experiments:
[1] = test system: HUVEC cells; assay: HUVEC cytotoxicity assay (CellTiter Glo, 72 h); format: cell-based; conditions: Homo sapiens, read-out: Cell Proliferation HUVEC IC50
Experimental: (§1) HeLa cells (ATCC® CCL2™) in DMEM (Dulbecco Modified Eagle's Medium) without phenol red, Thermo, 11880, USA+10% FBS+1× PenStrep+1× Gln or HUVEC cells (ATCC® CRL1730™) in EBM-2 (Endothelial Growth Basal Medium, Lonza, CC3156)+EGM-2 SingleQuotsTMSupplements and Growth Factors (Lonza, CC4176)+1× Penicyllin-Streptomycin (PenStrep, ThermoFisher)+1× Glutamine, are plated in a 384 well plate (Thermo, 4334-11, USA) to a density of 2000 cells per well and let recover for four hours at 37° C., 5% CO2 in a humidified atmosphere. After the recovery, compounds are transferred to assay plates as per compound preparation method. Assay plates are then incubated at 37° C., 5% CO2 in a humidified atmosphere for 72 hours. Cell viability is measured by the CellTiter Glo (Promega, G8080, USA) as per manufacturer instruction.

[2] = PK studies: plasma exposure and pharmacokinetic parameters after i.v., oral and i.p. administration; format: in vivo, C57BL/6 mice
Experimental: C57BL/6 mice were used to evaluate plasma exposure and pharmacokinetic parameters after intravenous, oral and intraperitoneal administration (5, 10, 30 mpk). In each animal an indwelling cannula was implanted in the right jugular vein for blood sampling. The surgery was performed under light anaesthesia (Ketamine-Xilazine (85 mg/kg and 2.5 mg/kg respectively i.m.) one day prior the experiment). During the kinetic study, all animals were housed individually in plastic metabolism cages, and were unrestrained throughout the experiment. Compounds (6 mg/mL) were dissolved in PEG400/H2O (50/50). After an overnight fast, the mice (15 animals per experiment) received an i.v. (via caudal vein) or an oral dose of the compound. Blood samples were collected at different times point after dosing. Plasma was separated immediately after blood sampling by centrifugation, and the plasma samples were kept frozen (−20° C.) until assayed by LC/MS/MS.
Analytical procedures: Plasma samples were extracted using Liquid Handling Robot MultiProbe Packard by protein precipitation with acetonitrile. Then the samples were centrifuged (3000 rpm×15 min at 4° C.) and the supernatant transferred and dried under nitrogen. The samples were reconstituted in water/acetonitrile 90/10 and then injected directly into an HPLC column. Sample analyses were performed using a an API 3000 or/and API 2000 or/and API 4000 Mass Spectrometer interfaced via the Turbo Ion Spray (ESI)/APCI to an LC system consisting of an HTS PAL CTC autosampler and an Agilen HP 1100 Binary Pump. The results are calculated using Analyst Software linear regression with 1/x*x weighting. The Assay Precision was calculated for the Quality Controls by Watson Lims database.
Pharmacokinetic Analysis: The plasma clearance (CLp) of the compounds were calculated (using Watson PK program) as the dose divided by the area under the plasma concentration-time curve from time zero to infinity (AUC0-∞). The apparent half-life was estimated from the slope of the terminal phase of the log plasma concentration-time data. The volume of distribution (Vdss) was determined using the following noncompartmental method: Vdss=(Dose IV×AUMC)/(AUC0-∞)2 where AUMC is the total area under the first moment of the drug concentration time curve from time zero to infinity. Bioavailability was estimated as the AUC0-∞ ratio following oral and intravenous administration, normalized for differences in dose.

[3] = test system: HeLa cells; assay: HeLa cytotoxicity assay (CellTiter Glo, 72 h); format: cell-based; conditions: Homo sapiens, read-out: Cell Proliferation Hela IC50
Experimental: as §1

[4] = test system: Bloodstream form of Trypanosoma brucei, strain Lister 427; assay: Trypanosoma brucei growth inhibition assay (CellTiter-Glo, 24 h); format: cell-based; conditions: Trypanosoma brucei
Method in brief: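 Growth read-out was CellTiter-Glo luminescence after 24 h at 37 °C incubation of 1500 bloodstream-form Lister 427 trypanosomes per well with compound, in supplemented IMDM containing 10% FBS and at most 0.25% DMSO.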

[5] = T. Brucei Growth Inibition Assay, class symbols, read-out: T. Brucei GI EC50
[6] = Table 3, read-out: T. brucei GI EC50

SMILES | IC50 [1] | clearance ([2]; C57BL/6, intravenous, 5 mpk, mouse, plasma clearance) | AUC ([2]; C57BL/6, mouse, plasma, oral, 10 mpk) | bioavailability ([2]; C57BL/6, plasma, 10 mg/kg, mouse, 10 mpk, po, single oral dose, read-out: Oral Bioavailability F %) | i.p. max brain concentration ([2]; mouse, after intraperitoneal injection (30 mpk), brain) | IC50 [3] | EC50 [4, 5] | EC50 [4, 6] | EC50 ([4]; Table 4, read-out: T. brucei Growth inhibition EC50) | EC90 ([4]; Table 4, read-out: T. brucei Growth inhibition EC90)
COc1nc2ccccc2cc1-c1cnc(C2CN(CC3CCOC3)CCN2C(=O)Cn2c(C(F)(F)F)nc3ccccc32)[nH]1 (stereo not shown) [1-(2-(5-(2-methoxyquinolin-3-yl)-1H-imidazol-2-yl)-4-((tetrahydrofuran-3-yl)methyl)piperazin-1-yl)-2-(2-(trifluoromethyl)-1H-benzo[d]imidazol-1-yl)ethan-1-one] | 14100 nM | 44.7 mL/min/kg | 4.6 µM·h | 78% | 190 nM | 21500 nM | < 100 nM | 29.9 nM | 30 nM | 287 nM
CCC(=O)CCCN1CCN(C(=O)Cc2c(C)[nH]c3ccc(OC)cc23)C(c2ncc(-c3cc4ccccc4nc3OC)[nH]2)C1 (stereo not shown) [6-(4-(2-(5-methoxy-2-methyl-1H-indol-3-yl)acetyl)-3-(5-(2-methoxyquinolin-3-yl)-1H-imidazol-2-yl)piperazin-1-yl)hexan-3-one] | 21400 nM | – | – | – | – | ≥ 25000 nM | < 100 nM | 34.2 nM | – | –
CCC(=O)CCCN1CCN(C(=O)Cc2c(C)[nH]c3ccc(OC)cc23)C(c2nnc(-c3ccc4ccccc4c3)o2)C1 (stereo not shown) [6-(4-(2-(5-methoxy-2-methyl-1H-indol-3-yl)acetyl)-3-(5-(naphthalen-2-yl)-1,3,4-oxadiazol-2-yl)piperazin-1-yl)hexan-3-one] | ≥ 25000 nM | – | – | – | – | ≥ 25000 nM | 100 to 500 nM | 350 nM | – | –
CCC(=O)CCCN1CCN(C(=O)Cc2c(C)[nH]c3ccc(OC)cc23)C(c2ncc(-c3ccc4ccccc4c3)[nH]2)C1 (stereo not shown) [6-(4-(2-(5-methoxy-2-methyl-1H-indol-3-yl)acetyl)-3-(5-(naphthalen-2-yl)-1H-imidazol-2-yl)piperazin-1-yl)hexan-3-one] | ≥ 25000 nM | – | – | – | – | 12300 nM | < 100 nM | 9.92 nM | – | –

Reference: patent US10815222B2, “Compounds for use in the treatment of kinetoplastid infection” (C.N.C.C.S. S.c.a.r.l. COLLEZIONE NAZIONALE DEI COMPOSTI …, priority 2016, dated 2020)
